Laboratory results reported in patent US20020039567A1, “Methods of treating bone or cartilage conditions by the administration of creatine” (priority 1998, published 2002).

Experiments:
[1] = tested on: osteoblasts (monolayer culture); experiment: Metabolic activity (MTT), monolayer osteoblast cell culture; type: cell-based, rat; settings: for metabolic activity measured by the MTT reaction / MTT reaction: preliminary
Method: This isolation technique is based on the ability of osteoblasts to migrate from bone onto a substratum. Parietal and frontal calvariae (4 per animal) were aseptically explanted from 6 day-old IcoIbm rats. The calvariae were placed in Tyrode's balanced salt solution, calcium and magnesium free (TESS). The periosteum was enzymatically removed with 0.05% trypsin and 0.02% collagenase A (0.76 U/mg) dissolved in TBSS (40 calvaria/20 ml). The calvariae were shaken for 70 minutes in a waterbath at 37° C. They were washed with TESS and then transferred to 60 mm culture dishes (40 calvariae/dish) containing 5 ml of 0.02% collagenase A (0.76 U/mg) in culture medium BGJb Fitton-Jackson modification and placed in the incubator for 4 hours. The calvariae were then washed with culture medium B supplemented with 10% foetal calf serum (FCS). The calvariae were transferred into 60 mm culture dishes (4 frontal and 4 parietal/dish). The growth medium supplemented with 10% FCS and 50 μg/ml ascorbate was completely changed every 48 hours. The culture was kept for 3 weeks.
After 3 weeks the migrated cells were harvested. The dish was washed with TESS, and 5 ml of TESS containing 0.05% trypsin and 0.02% collagenase A (0.76 U/mg) was added. After 1 hour in the incubator, the dish was washed with culture medium BGJb supplemented with 10% FCS. The dishes containing the calvariae and cells were rinsed with serum containing media BGJb. The cells obtained were filtered through a 40 μm nylon mesh to remove bone debris and cell aggregates. The suspended cells were centrifuged at 600 g for 5 minutes. The cell pellet was resuspended in serum containing medium BGJb and centrifuged. The viability of the resuspended cells was examined by the dye exclusion of 0.4% trypan blue, and the cells were counted in a haeinocytometer. The inoculation densities were 2·10^5/10 cm^2 for monolayer and 2·10^5/30 μl for micromasses. The micromass cultures were kept for 1 hour in the incubator before 2 ml growth medium was added.
All the cultures were kept at 37° C. in a humidified atmosphere of 5% CO2, 95% air. All culture media were supplemented with 50 μg/ml ascorbate. To analyze the collagen types, 60 μg/ml beta-aminopropionitrile (beta-APN) was added to the culture medium. During cell isolation and inoculation, no ascorbate was used to increase plating efficiency. No antibiotics and no beta-glycerophosphate were added. The media were completely changed every 48 hours (60 mm culture dish 5 ml; 35 mm culture dish 2 ml).
The Böhringer Cell Proliferation Kit I (MTT) was used for the assay, but we used a different solvent to dissolve the MTT crystals.
Originally, Mosmann, 1983 described the general principle involved in the detection of cell growth/cell death as indicated by the conversion of the tetrazolium salt (MTT) to the colored formazan by mitochondrial dehydrogenases. The concentration of this can then be measured spectrophotoinetrically.
1. MTT Stock (5 mg/ml in sterile PBS) from Böhringer was diluted […] with complete growth medium and sterile filtering.
2. The cells were incubated in 2 ml/10 cm^2 MTT solution at 37° C. for 3 hours.
3. The supernatant was carefully removed.
4. 4 ml/10 cm^2 dimethylsulphoxide (DMSO) was added.
5. The dishes were placed on a shaker until the crystals were completely dissolved.
6. The absorbance of the supernatant (3 aliquots/dish) was read at 550 nm versus DMSO.
If the absorbance was higher than 1, the samples were diluted with DMSO.
The mean value and the standard deviation consisted of n independent experiments. The values for the individual experiments were gained from the mean of 3 aliquots of the same dish. To compare the treatment, contrasts analysis of variance models were evaluated.

[2] = tested on: osteoblasts (monolayer culture); experiment: Mineralization (von Kossa, image analysis), monolayer osteoblast cell culture; type: cell-based, rat; settings: for mineralization (FIG. 3): no significant difference between groups
Method: This isolation technique is based on the ability of osteoblasts to migrate from bone onto a substratum. Parietal and frontal calvariae (4 per animal) were aseptically explanted from 6 day-old IcoIbm rats. The calvariae were placed in Tyrode's balanced salt solution, calcium and magnesium free (TESS). The periosteum was enzymatically removed with 0.05% trypsin and 0.02% collagenase A (0.76 U/mg) dissolved in TBSS (40 calvaria/20 ml). The calvariae were shaken for 70 minutes in a waterbath at 37° C. They were washed with TESS and then transferred to 60 mm culture dishes (40 calvariae/dish) containing 5 ml of 0.02% collagenase A (0.76 U/mg) in culture medium BGJb Fitton-Jackson modification and placed in the incubator for 4 hours. The calvariae were then washed with culture medium B supplemented with 10% foetal calf serum (FCS). The calvariae were transferred into 60 mm culture dishes (4 frontal and 4 parietal/dish). The growth medium supplemented with 10% FCS and 50 μg/ml ascorbate was completely changed every 48 hours. The culture was kept for 3 weeks. After 3 weeks the migrated cells were harvested. The dish was washed with TESS, and 5 ml of TESS containing 0.05% trypsin and 0.02% collagenase A (0.76 U/mg) was added. After 1 hour in the incubator, the dish was washed with culture medium BGJb supplemented with 10% FCS. The dishes containing the calvariae and cells were rinsed with serum containing media BGJb. The cells obtained were filtered through a 40 μm nylon mesh to remove bone debris and cell aggregates. The suspended cells were centrifuged at 600 g for 5 minutes. The cell pellet was resuspended in serum containing medium BGJb and centrifuged. The viability of the resuspended cells was examined by the dye exclusion of 0.4% trypan blue, and the cells were counted in a haeinocytometer. The inoculation densities were 2·10^5/10 cm^2 for monolayer and 2·10^5/30 μl for micromasses. The micromass cultures were kept for 1 hour in the incubator before 2 ml growth medium was added. All the cultures were kept at 37° C. in a humidified atmosphere of 5% CO2, 95% air. All culture media were supplemented with 50 μg/ml ascorbate. To analyze the collagen types, 60 μg/ml beta-aminopropionitrile (beta-APN) was added to the culture medium. During cell isolation and inoculation, no ascorbate was used to increase plating efficiency. No antibiotics and no beta-glycerophosphate were added. The media were completely changed every 48 hours (60 mm culture dish 5 ml; 35 mm culture dish 2 ml). The most specific method for detecting calcified matrices is the von Kossa reaction. Silver staining indicates the presence of calcium phosphate aggregated with certain organic acids. Structural details are completely obscured by the dark precipitate. Calcified tissue components are darkened in various shades from light brown to deep black, irrespective of their mineral content. [table] In the further experiments to quantify the calcification by image analysis of a center area (123 mm^2) of the culture dish, only the creatine groups were compared to the control groups, with the GPA-treated cells not further evaluated.

Compound | effects on the metabolism and the viability of the cells ([1]; GPA-treated osteoblasts, summary) | metabolic activity measured by the MTT reaction ([1]; 2 weeks, 10 mM GPA vs control) | MTT reaction ([1]; 3 weeks, 1 mM or 5 mM GPA vs control) | MTT reaction ([1]; 3 weeks, 10 mM GPA vs control) | calcification pattern ([2]; 3 weeks, GPA groups, mineralization not limited to the nodules) | metabolic activity (MTT) (FIG. 2) ([1]; 10 mM and 20 mM creatine vs control, 1 week) | metabolic activity (MTT) (FIG. 2) ([1]; 10 mM creatine vs control, 2 weeks, p<0.015) | metabolic activity (MTT) (FIG. 2) ([1]; 10 mM creatine vs control, 3 weeks, p<0.001) | metabolic activity (MTT) (FIG. 2) ([1]; 20 mM creatine vs control, 2 weeks, p<0.0025) | metabolic activity (MTT) (FIG. 2) ([1]; 20 mM creatine vs control, 3 weeks, p<0.001) | metabolic activity measured by the MTT reaction ([1]; 2 weeks, creatine groups vs control) | MTT reaction ([1]; 3 weeks, creatine vs control) | mineralization (FIG. 3) ([2]; 10 mM creatine vs control, 3 weeks) | calcified area (FIG. 3) ([2]; 20 mM creatine vs control, 2 weeks, p<0.02, center area 123 mm^2) | mineralization (FIG. 3) ([2]; 20 mM creatine, 3 weeks, compared with 10 mM) | mineralization, mean values ([2]; creatine groups vs control, after 2 and 3 weeks)
N=C(N)NCCC(=O)O [GPA, beta-guanidinopropionic acid] | adverse effects on both the metabolism and the viability of the cells | lower values than the control | lower values than the control | comparable to the control | different from the control and the creatine groups | – | – | – | – | – | – | – | – | – | – | –
CN(CC(=O)O)C(=N)N [creatine] | – | – | – | – | – | all groups were similar | control group was significantly lower than the 10 mM creatine | significantly higher than the control group | control group was significantly lower than the 10 mM creatine and the 20 mM creatine | significantly higher than the control group | slightly stimulated | stimulated the MTT reaction | more mineralization than the control | significantly higher | less effective | Mean values were higher
